Calls of active or inactive are those of the source. The rule behind the calls is not given here.
Key:
[1] = biological target: Deoxyribonuclease-1 (Bos taurus) (UniProt P00639); experiment: Inhibition of bovine deoxyribonuclease 1 at 100 uM
[2] = biological target: T1, DNA polymerase eta (Homo sapiens) (UniProt Q9Y253); experiment: Inhibition of human DNA polymerase eta
T1 sequence (whole entry): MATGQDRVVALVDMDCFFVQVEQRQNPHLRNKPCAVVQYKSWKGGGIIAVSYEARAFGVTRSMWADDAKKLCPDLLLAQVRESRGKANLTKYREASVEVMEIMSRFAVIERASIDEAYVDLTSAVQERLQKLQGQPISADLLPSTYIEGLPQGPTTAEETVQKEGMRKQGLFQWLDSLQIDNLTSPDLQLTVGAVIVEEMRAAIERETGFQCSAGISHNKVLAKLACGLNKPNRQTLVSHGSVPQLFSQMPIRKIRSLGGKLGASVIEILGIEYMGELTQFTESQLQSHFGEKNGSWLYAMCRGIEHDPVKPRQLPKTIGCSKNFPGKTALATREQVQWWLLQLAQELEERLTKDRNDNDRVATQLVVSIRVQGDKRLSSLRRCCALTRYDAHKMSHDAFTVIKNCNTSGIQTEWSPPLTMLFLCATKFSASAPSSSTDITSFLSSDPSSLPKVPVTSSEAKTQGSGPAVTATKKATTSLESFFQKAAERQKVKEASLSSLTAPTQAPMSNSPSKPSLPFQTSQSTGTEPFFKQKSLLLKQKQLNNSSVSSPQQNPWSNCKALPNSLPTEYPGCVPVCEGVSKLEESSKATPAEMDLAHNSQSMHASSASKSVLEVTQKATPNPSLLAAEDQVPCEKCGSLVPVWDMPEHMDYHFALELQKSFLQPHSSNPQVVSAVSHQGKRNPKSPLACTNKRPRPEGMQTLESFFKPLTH

Oncorhynchus masou = experiment: Inhibition of cherry salmon DNA polymerase delta at 100 uM
Thermus aquaticus = experiment: Inhibition of Taq DNA polymerase at 100 uM
[3] = biological target: T1, DNA polymerase eta (Homo sapiens); experiment: Inhibition of human DNA polymerase eta at 100 uM
Homo sapiens [4] = species: Homo sapiens; experiment: Inhibition of human DNA topoisomerase 2 at 100 uM
[5] = biological target: Human immunodeficiency virus type 1 reverse transcriptase (Human immunodeficiency virus 1) (UniProt Q72547); experiment: Inhibition of HIV-1 reverse transcriptase at 100 uM
[6] = biological target: Polynucleotide kinase (Enterobacteria phage T4) (UniProt P06855); experiment: Inhibition of Enterobacteria phage T4 Polynucleotide kinase at 100 uM; conditions: Tequatrovirus T4
Chain of Polynucleotide kinase (Enterobacteria phage T4) (P06855 whole entry): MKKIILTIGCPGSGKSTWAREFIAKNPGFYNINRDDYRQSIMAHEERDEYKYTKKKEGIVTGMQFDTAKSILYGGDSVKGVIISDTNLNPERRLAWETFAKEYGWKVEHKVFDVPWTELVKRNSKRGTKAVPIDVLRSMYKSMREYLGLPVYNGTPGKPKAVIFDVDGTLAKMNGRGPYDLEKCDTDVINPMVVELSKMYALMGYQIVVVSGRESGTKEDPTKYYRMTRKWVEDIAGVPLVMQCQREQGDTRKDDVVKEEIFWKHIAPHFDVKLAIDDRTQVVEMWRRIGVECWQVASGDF

Homo sapiens [7] = species: Homo sapiens; experiment: Inhibition of human DNA polymerase gamma at 100 uM
Drosophila melanogaster [8] = experiment: Inhibition of fruit fly DNA polymerase epsilon at 100 uM
[9] = biological target: DNA topoisomerase 1 (Homo sapiens) (UniProt P11387); experiment: Inhibition of human DNA topoisomerase 1 at 100 uM
Chain of DNA topoisomerase 1 (Homo sapiens) (P11387 whole entry): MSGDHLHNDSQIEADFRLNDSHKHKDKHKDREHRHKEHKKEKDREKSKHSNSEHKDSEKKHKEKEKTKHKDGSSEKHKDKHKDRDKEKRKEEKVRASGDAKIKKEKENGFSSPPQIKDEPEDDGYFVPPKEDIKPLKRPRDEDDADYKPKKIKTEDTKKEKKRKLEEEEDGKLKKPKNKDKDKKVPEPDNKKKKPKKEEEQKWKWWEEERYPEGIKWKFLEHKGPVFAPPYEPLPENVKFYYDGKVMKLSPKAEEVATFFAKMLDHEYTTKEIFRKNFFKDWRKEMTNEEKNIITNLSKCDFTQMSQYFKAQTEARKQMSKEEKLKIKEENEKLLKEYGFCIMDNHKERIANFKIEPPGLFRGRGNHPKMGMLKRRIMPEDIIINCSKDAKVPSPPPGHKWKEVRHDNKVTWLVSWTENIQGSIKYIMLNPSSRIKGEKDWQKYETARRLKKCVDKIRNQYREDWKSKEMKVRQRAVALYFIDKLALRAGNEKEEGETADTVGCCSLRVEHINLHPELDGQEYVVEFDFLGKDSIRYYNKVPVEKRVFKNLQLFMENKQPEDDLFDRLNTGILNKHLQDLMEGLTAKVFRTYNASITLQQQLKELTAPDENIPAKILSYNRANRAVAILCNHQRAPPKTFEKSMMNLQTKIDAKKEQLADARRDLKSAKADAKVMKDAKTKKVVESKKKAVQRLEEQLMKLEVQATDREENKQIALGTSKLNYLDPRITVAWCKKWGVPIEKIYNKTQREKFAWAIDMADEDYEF

Escherichia phage T7 = experiment: Inhibition of Enterobacteria phage T7 RNA polymerase at 100 uM
[10] = biological target: DNA polymerase beta (Rattus norvegicus) (UniProt P06766); experiment: Inhibition of rat DNA polymerase beta at 100 uM
Escherichia coli = experiment: Inhibition of Escherichia coli DNA polymerase 1 Klenow fragment at 100 uM
[11] = biological target: Inosine-5'-monophosphate dehydrogenase 2 (Mus musculus) (UniProt P24547); experiment: Inhibition of mouse IMP dehydrogenase 2 at 100 uM
Chain of Inosine-5'-monophosphate dehydrogenase 2 (Mus musculus) (P24547 whole entry, looked up): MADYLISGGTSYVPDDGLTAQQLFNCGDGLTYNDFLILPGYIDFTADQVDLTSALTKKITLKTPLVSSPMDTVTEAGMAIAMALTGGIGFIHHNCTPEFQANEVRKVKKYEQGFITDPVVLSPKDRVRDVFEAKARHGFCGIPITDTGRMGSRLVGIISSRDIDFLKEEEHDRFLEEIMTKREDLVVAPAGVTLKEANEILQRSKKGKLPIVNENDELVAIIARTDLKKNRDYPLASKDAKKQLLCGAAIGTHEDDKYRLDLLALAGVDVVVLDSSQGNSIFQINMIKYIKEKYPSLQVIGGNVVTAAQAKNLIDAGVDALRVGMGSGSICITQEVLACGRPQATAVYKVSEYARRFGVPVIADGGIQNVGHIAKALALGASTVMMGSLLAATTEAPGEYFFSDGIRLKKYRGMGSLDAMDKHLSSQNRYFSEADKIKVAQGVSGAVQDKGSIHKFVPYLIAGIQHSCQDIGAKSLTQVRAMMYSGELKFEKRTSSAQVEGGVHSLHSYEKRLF

Bos taurus [12] = species: Bos taurus; experiment: Inhibition of calf primase of DNA polymerase alpha at 100 uM
[13] = biological target: T2, DNA polymerase kappa (Homo sapiens) (UniProt Q9UBT6); experiment: Inhibition of human DNA polymerase kappa
T2 sequence (whole entry): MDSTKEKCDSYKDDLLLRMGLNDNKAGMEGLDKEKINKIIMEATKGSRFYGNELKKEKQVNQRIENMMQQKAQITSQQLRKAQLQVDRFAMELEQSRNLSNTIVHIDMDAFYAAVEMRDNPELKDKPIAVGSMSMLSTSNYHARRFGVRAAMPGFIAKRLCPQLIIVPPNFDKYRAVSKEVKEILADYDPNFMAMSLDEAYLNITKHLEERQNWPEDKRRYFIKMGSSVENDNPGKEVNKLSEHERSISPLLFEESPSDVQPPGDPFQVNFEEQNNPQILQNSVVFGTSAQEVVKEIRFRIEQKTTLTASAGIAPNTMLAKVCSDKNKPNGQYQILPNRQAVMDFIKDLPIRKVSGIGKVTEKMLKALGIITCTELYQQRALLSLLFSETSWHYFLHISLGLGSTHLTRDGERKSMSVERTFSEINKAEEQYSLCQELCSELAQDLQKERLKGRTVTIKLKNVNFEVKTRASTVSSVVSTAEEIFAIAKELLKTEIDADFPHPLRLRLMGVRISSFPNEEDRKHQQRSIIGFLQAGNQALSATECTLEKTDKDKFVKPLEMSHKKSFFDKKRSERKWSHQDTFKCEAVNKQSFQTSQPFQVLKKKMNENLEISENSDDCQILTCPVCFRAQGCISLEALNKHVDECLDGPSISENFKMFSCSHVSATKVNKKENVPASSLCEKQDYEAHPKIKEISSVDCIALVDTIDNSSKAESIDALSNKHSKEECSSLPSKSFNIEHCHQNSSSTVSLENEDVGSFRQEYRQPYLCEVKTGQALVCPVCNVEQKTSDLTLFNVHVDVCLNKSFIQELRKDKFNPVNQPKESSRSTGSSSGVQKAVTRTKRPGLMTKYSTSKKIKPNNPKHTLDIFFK

[14] = biological target: Telomerase reverse transcriptase (Homo sapiens) (UniProt O14746); experiment: Inhibition of human telomerase at 100 uM
Chain of Telomerase reverse transcriptase (Homo sapiens) (O14746 whole entry): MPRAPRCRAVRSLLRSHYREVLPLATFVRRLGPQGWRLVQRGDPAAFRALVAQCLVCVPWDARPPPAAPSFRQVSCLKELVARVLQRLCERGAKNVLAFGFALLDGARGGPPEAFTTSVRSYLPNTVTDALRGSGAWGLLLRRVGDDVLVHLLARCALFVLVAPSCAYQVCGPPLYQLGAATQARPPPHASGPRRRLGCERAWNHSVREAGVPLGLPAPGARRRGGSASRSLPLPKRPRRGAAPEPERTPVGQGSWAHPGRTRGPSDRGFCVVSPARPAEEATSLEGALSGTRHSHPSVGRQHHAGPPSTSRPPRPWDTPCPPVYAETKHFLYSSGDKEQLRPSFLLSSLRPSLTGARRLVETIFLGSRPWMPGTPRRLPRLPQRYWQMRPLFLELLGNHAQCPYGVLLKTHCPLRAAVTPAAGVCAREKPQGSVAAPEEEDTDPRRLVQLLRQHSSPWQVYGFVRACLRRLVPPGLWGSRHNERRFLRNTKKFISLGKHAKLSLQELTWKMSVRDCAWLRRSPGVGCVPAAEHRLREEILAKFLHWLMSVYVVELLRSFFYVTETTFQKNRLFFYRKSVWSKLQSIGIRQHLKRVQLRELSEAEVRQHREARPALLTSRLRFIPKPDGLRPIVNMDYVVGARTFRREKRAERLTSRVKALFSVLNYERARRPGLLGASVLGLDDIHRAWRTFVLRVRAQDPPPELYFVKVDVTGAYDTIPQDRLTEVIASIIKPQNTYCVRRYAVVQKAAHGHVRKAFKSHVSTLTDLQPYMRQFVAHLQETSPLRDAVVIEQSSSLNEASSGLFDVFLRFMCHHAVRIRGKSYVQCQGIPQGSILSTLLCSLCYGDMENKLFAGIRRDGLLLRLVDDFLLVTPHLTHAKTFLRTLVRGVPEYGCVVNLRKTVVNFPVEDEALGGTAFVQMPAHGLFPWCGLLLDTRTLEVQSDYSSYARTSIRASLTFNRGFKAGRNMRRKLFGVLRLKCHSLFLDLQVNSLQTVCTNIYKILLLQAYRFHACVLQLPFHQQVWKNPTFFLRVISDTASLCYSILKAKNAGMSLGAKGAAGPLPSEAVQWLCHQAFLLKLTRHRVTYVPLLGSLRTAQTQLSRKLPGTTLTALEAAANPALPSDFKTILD

Bos taurus [15] = species: Bos taurus; experiment: Inhibition of calf DNA polymerase alpha at 100 uM
[16] = biological target: T2, DNA polymerase kappa (Homo sapiens); experiment: Inhibition of human DNA polymerase kappa at 100 uM
[17] = biological target: T3, DNA polymerase iota (Mus musculus) (UniProt Q6R3M4); experiment: Inhibition of mouse DNA polymerase iota at 100 uM
T3 sequence (whole entry): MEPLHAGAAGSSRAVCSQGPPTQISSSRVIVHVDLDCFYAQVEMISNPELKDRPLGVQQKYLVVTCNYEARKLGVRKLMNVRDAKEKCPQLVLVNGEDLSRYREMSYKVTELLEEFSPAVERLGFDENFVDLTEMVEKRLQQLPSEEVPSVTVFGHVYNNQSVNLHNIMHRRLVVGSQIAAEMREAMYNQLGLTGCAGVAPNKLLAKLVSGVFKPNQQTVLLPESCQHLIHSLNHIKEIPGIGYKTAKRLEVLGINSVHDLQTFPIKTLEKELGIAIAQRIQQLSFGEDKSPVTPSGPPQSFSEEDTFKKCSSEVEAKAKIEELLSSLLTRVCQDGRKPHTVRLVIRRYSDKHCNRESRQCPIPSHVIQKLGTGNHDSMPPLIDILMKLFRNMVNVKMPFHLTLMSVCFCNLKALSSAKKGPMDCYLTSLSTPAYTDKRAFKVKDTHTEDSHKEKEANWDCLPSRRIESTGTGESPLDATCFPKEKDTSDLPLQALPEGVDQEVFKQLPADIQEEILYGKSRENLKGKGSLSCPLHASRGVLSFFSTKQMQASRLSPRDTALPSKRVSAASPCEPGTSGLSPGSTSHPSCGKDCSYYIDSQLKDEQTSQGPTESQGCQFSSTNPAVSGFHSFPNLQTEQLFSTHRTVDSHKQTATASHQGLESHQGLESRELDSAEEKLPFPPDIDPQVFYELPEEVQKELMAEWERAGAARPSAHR

[18] = biological target: DNA polymerase lambda (Homo sapiens) (UniProt Q9UGP5); experiment: Inhibition of human DNA polymerase lambda at 100 uM
Chain of DNA polymerase lambda (Homo sapiens) (Q9UGP5 whole entry): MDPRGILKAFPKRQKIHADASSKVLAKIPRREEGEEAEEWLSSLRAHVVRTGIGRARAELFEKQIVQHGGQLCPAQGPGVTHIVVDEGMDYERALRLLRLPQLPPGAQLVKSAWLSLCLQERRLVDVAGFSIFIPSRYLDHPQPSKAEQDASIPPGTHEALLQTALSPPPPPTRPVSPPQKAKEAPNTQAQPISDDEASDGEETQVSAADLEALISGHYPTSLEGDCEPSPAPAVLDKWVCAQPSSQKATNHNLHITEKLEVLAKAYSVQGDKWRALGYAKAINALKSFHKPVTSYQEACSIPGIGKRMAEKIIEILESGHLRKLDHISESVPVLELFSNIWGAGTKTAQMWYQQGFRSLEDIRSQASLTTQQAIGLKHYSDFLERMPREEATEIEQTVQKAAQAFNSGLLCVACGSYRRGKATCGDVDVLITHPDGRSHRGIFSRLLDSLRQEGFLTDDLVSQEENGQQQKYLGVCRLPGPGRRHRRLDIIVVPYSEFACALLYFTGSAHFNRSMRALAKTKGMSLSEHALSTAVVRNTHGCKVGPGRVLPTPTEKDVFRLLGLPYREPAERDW

[19] = biological target: DNA nucleotidylexotransferase (Bos taurus) (UniProt P06526); experiment: Inhibition of calf terminal deoxynucleotidyltransferase at 100 uM
Chain of DNA nucleotidylexotransferase (Bos taurus) (P06526 whole entry): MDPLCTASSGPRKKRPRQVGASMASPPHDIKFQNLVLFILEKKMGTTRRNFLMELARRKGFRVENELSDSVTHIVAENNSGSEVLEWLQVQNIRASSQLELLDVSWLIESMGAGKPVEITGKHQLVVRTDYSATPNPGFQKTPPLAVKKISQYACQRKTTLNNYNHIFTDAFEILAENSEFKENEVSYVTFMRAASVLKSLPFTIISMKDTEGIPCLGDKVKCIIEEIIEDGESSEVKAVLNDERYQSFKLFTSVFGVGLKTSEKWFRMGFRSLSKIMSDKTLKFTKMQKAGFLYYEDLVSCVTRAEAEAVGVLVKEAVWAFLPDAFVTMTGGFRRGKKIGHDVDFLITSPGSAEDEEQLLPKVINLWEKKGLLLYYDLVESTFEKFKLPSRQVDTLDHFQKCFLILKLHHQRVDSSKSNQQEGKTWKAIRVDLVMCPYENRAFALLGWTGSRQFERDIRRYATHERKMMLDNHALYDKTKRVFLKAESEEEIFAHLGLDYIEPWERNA

Homo sapiens [20] = species: Homo sapiens; experiment: Inhibition of human DNA polymerase delta at 100 uM
[21] = biological target: DNA-directed DNA polymerase (Enterobacteria phage T4) (UniProt P04415); experiment: Inhibition of Enterobacteria phage T4 DNA polymerase at 100 uM; conditions: Tequatrovirus T4
Chain of DNA-directed DNA polymerase (Enterobacteria phage T4) (P04415 whole entry): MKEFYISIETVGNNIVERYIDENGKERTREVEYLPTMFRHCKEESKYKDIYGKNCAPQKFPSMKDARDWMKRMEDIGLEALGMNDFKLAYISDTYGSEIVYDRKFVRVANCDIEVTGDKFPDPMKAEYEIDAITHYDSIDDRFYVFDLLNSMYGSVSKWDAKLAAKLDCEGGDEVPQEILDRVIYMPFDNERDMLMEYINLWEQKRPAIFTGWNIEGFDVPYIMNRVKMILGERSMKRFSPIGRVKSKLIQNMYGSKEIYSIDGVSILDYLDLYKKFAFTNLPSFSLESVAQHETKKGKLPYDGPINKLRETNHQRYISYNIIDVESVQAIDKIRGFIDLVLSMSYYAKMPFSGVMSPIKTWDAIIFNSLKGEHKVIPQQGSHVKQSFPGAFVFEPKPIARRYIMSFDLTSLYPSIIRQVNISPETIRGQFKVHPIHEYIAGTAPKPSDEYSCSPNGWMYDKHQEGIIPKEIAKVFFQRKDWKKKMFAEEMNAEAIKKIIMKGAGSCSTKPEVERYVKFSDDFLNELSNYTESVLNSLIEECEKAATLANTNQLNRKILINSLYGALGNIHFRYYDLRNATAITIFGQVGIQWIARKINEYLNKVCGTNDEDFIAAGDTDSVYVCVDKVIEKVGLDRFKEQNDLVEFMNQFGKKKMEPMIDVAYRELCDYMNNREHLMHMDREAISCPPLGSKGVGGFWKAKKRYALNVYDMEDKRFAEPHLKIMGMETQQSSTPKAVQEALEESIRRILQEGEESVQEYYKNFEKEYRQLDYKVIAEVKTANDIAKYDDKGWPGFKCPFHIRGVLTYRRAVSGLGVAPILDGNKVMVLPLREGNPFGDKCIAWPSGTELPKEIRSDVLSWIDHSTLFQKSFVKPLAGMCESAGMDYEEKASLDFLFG

Drosophila melanogaster [22] = experiment: Inhibition of fruit fly DNA polymerase delta at 100 uM
Drosophila melanogaster [23] = experiment: Inhibition of fruit fly DNA polymerase alpha at 100 uM
[24] = biological target: T3, DNA polymerase iota (Mus musculus); experiment: Inhibition of mouse DNA polymerase iota
Homo sapiens [25] = species: Homo sapiens; experiment: Inhibition of human DNA polymerase epsilon at 100 uM
[26] = system: Brassica oleracea var. botrytis; experiment: Inhibition of cauliflower DNA polymerase alpha at 100 uM
Oryza sativa = experiment: Inhibition of rice DNA polymerase lambda at 100 uM

Chain of Deoxyribonuclease-1 (Bos taurus) (P00639 whole entry): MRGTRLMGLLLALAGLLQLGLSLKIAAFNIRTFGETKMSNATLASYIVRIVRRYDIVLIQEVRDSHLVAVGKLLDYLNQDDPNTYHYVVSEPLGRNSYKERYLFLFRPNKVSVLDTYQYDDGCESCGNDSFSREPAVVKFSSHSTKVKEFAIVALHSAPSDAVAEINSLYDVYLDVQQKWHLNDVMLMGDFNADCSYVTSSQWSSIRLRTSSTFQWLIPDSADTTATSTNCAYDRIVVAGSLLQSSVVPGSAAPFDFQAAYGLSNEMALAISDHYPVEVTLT

| Activity [1] | Activity [2] | Activity (Oncorhynchus masou) | Activity (Thermus aquaticus) | Activity [3] | Activity (Homo sapiens [4]) | Activity [5] | Activity [6] | Activity (Homo sapiens [7]) | Activity (Drosophila melanogaster [8]) | Activity [9] | Activity (Escherichia phage T7) | Activity [10] | Activity (Escherichia coli) | Activity [11] | Activity (Bos taurus [12]) | Activity [13] | Activity [14] | Activity (Bos taurus [15]) | Activity [16] | SMILES | other results |
| --- | --- | --- | --- | --- | --- | --- | --- | --- | --- | --- | --- | --- | --- | --- | --- | --- | --- | --- | --- | --- | --- |
| inactive | Dose-dependent effect | inactive | inactive | Active | inactive | inactive | inactive | inactive | inactive | inactive | inactive | inactive | inactive | inactive | inactive | Dose-dependent effect | inactive | inactive | Active | COC1=C(C(=O)CC(C)O)C(=O)C(C)(/C=C/C=C/C(C)O)O1 (stereo unspecified) | Activity [17]: Active; Activity [18]: inactive; Activity [19]: inactive; Activity (Homo sapiens [20]): inactive; Activity [21]: inactive; Activity (Drosophila melanogaster [22]): inactive; Activity (Drosophila melanogaster [23]): inactive; Activity [24]: Dose-dependent effect; Activity (Homo sapiens [25]): inactive; Activity [26]: inactive |
| inactive | Dose-dependent effect | inactive | inactive | Active | inactive | inactive | inactive | inactive | inactive | inactive | inactive | inactive | inactive | inactive | inactive | Dose-dependent effect | inactive | inactive | Active | C/C=C/C(=O)C1=C(OC)OC(C)(/C=C/C=C/C(C)O)C1=O (stereo unspecified) | Activity (Oryza sativa): inactive; Activity [17]: Active; Activity [18]: inactive; Activity [19]: inactive; Activity (Homo sapiens [20]): inactive; Activity [21]: inactive; Activity (Drosophila melanogaster [22]): inactive; Activity (Drosophila melanogaster [23]): inactive; Activity [24]: Dose-dependent effect; Activity (Homo sapiens [25]): inactive; Activity [26]: inactive |
